Data taken from patent publication US20260306460A1, “COMPOSITION FOR REMOVING AND INHIBITING SENESCENT CELLS, AND USES THEREOF” (LIFECEUTIX CO., LTD., priority 2023, published 2026).

Assays:
senescent foreskin cells = experiment: Survival of senescent human cells treated with supernatant (secreted fluid) from death-induced cells, Example 13; format: cell-based; conditions: Table 8; supernatant from dying senescent cells treated at 30, 90 or 270 μM (as Example 11); senescent treated cells
[1] = test system: HMGN1 secreted from senescent A549 cells; experiment: HMGN1 secretion (ELISA) from senescent A549 cancer cells, Example 12; format: cell-based, human; conditions: senescent untreated = 100%; 30 μM; 90 μM for LX-305, 905, 1302, 1601, 1603, 2003, 2702, 2901, 3106; 270 μM for LX-1103, 2005, 2007;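 note: A549 cells made senescent by doxorubicin exposure, with DMSO-treated cells serving as the non-senescent control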
[2] = test system: carbon tetrachloride-induced liver fibrosis mice; experiment: Carbon tetrachloride-induced liver fibrosis mice, Example 31, Table 57; format: in vivo, mouse; conditions: CCl4-induced liver fibrosis mice, untreated = 100%
In short: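 Mice with induced hepatic fibrosis received either the test compound or, as controls, an equal volume of vehicle solution alone. Once dosing ended, liver tissue was harvested and total RNA was isolated. cDNA was synthesized from this RNA, and quantitative RT-PCR was run on it to measure hepatic mRNA levels of the fibrosis- and senescence-related genes.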

naturally aged mice = experiment: Anti-aging evaluation in naturally aged mice, Example 31, Table 55; format: in vivo, mouse; conditions: for Femur Ctsk mRNA / Kidney Agtr1a mRNA / Liver IL6 mRNA / Liver MMP3 mRNA / Liver p16 mRNA / Open Field Test Time in Center: untreated = 100%; for Heart Sur2a mRNA / Joint Col2a1 mRNA / Skin Col1a1 mRNA / Skin SDF1 mRNA: untreated = 1.0; for Muscle Mass: untreated 0.64 g; for Fat Mass: untreated 0.82 g; for Cataract incidence: untreated 83%;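 for all read-outs here: Vehicle-dosed control mice received solution alone at matching volume, values compare test-compound-treated aged mice against that control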
[3] = test system: bleomycin-induced pulmonary fibrosis mice; experiment: Bleomycin-induced pulmonary fibrosis mice, Example 31, Table 56; format: in vivo, mouse; conditions: untreated = 100%
In short: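 Mice with bleomycin-induced pulmonary fibrosis, untreated or given test compound, with vehicle-only controls. Lung tissue collected for RNA extraction and qRT-PCR analysis.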

senescent human cells = experiment: Viability of doxorubicin-induced senescent human cells (CellTiter-Glo), Example 11; format: cell-based; conditions: Homo sapiens, 0 μM = 100, read-out: Survival; for viability at […]: 3.3 μM
[4] = test system: HMGN1 secreted from senescent A549 cells; experiment: HMGN1 secretion (ELISA) from senescent A549 cells, Example 18, Table 14; format: cell-based, human; conditions: doxorubicin-senescent A549, without test compound (DMSO) = 100%; 30 μM (LX-5211, LX-5433, LX-6530, LX-6800, LX-9105, LX-9118, LX-9131, LX-9136, LX-9302, LX-9321, LX-9565, LX-9602 at 90 μM; LX-9336 at 2.4 mM)
senescent A549 cells [5] = experiment: Viability of senescent A549 cells (CellTiter-Glo), Example 18, Table 15; conditions: doxorubicin-induced senescent A549 cells, 0 μM = 100%
senescent cells = experiment: Viability of senescent cells (CellTiter-Glo), Example 17, Table 13; conditions: doxorubicin-induced senescent cells, 0 μM = 100
senescent A549 cells [6] = experiment: Viability of senescent A549 cancer cells (CellTiter-Glo), Example 12; format: cell-based, human; conditions: Homo sapiens, A549, 0 μM = 100, read-out: Survival

Molecule | Survival (senescent foreskin cells) | HMGN1 [1] [%] | Liver p16 mRNA [2] | Col1a1 mRNA [2] | Femur Ctsk mRNA (naturally aged mice) [%] | Heart Sur2a mRNA (naturally aged mice) [fold] | Joint Col2a1 mRNA (naturally aged mice) [fold] | Kidney Agtr1a mRNA (naturally aged mice) [%] | Liver IL6 mRNA (naturally aged mice) [%] | Liver MMP3 mRNA (naturally aged mice) [%] | Liver p16 mRNA (naturally aged mice) [%] | Open Field Test Time in Center (naturally aged mice) [%] | Skin Col1a1 mRNA (naturally aged mice) [Fold] | Skin SDF1 mRNA (naturally aged mice) [fold] | Muscle Mass (naturally aged mice) [g] | Fat Mass (naturally aged mice) [g] | Cataract incidence (naturally aged mice) [%] | Lung p16 mRNA [3] | Col1a1 mRNA [3] | HMGN1 [4] [%] | also measured
CCN(CC)C(=S)SSC(=S)N(CC)CC [LX-1601, Disulfiram] | 81.4 | 257 | 48 (±4.0) % | 50 (±2.0) % | 40 | 2.6 | 2.0 | 66 | 43 | 39 | 62 | 228 | 1.8 | 2.1 | 0.74 | 1.20 | 62 | 52 (±3.7) % | 63 (±4.6) % | – | viability at […] (senescent human cells): 90%
Alirocumab [LX-9562] | – | – | – | – | – | – | – | – | – | – | – | – | – | – | – | – | – | – | – | 269 | Survival (%) (senescent A549 cells [5]; 1.1 μM): 94.1%; Survival (%) (senescent A549 cells [5]; 10 μM): 51.8%; Survival (%) (senescent A549 cells [5]; 30 μM): 2.1%; Survival (%) (senescent A549 cells [5]; […]): 89.1%; Survival (%) (senescent cells; 1.1 μM): 97.0%; Survival (%) (senescent cells; 10 μM): 45.4%; Survival (%) (senescent cells; 30 μM): 14.0%; Survival (%) (senescent cells; […]): 97.3%
Cc1nnc(-c2cc(C(=O)N3CCC(c4ccc(C#N)cc4)CC3)c(C)cc2C2CCC2)[nH]1 [LX-305] | 89.5 | 227 | 64 (±2.3) % | 70 (±3.2) % | 73 | 1.8 | 2.6 | 73 | 61 | 78 | 69 | 157 | 1.7 | 1.9 | 0.66 | 0.91 | 75 | 62 (±3.5) % | 73 (±4.1) % | – | viability at 1.1 µM (senescent A549 cells [6]; 1.1 μM): 99.2%; viability at […] (senescent A549 cells [6]; 3.3 μM): 93.8%; viability at 10 µM (senescent A549 cells [6]; 10 μM): 63.1%; viability at 30 µM (senescent A549 cells [6]; 30 μM): 41%; viability at 90 µM (senescent A549 cells [6]; 90 μM): 13.3%; viability at 1.1 µM (senescent human cells; 1.1 μM): 101%; viability at […] (senescent human cells): 97.2%; viability at 10 µM (senescent human cells; 10 μM): 91%; viability at 30 µM (senescent human cells; 30 μM): 78%; viability at 90 µM (senescent human cells; 90 μM): 23.2%
CO[C@]1(C(=O)N[C@@H](C)c2ccc(-n3cc(F)cn3)nc2)CC[C@H](c2nc(C)cc(Nc3cc(C)[nH]n3)n2)CC1 [LX-1902, Pralsetinib] | 53.4 | 271 | 77 (±9.6) % | 68 (±5.7) % | 81 | 1.5 | 1.5 | 71 | 79 | 81 | 72 | 157 | 1.2 | 1.6 | 0.68 | 0.95 | 76 | 72 (±8.8) % | 64 (±8.2) % | – | –
Cc1[nH]nc(C(F)(F)F)c1Cc1sc2c(c1C(=O)N1C[C@](C)(O)CO1)c(=O)n(C)c(=O)n2C(C)C [LX-3203] | 57.1 | 293 | 64 (±4.0) % | 66 (±4.5) % | 55 | 1.8 | 1.6 | 68 | 67 | 62 | 66 | 183 | 1.8 | 2.2 | 0.68 | 0.85 | 75 | 69 (±5.0) % | 64 (±4.5) % | – | –
Dazdotuftide [LX-9601] | – | – | – | – | – | – | – | – | – | – | – | – | – | – | – | – | – | – | – | 209 | Survival (%) (senescent A549 cells [5]; 1.1 μM): 92.2%; Survival (%) (senescent A549 cells [5]; 10 μM): 69.1%; Survival (%) (senescent A549 cells [5]; 30 μM): 15.0%; Survival (%) (senescent A549 cells [5]; […]): 89.0%; Survival (%) (senescent cells; 1.1 μM): 96.9%; Survival (%) (senescent cells; 10 μM): 78.8%; Survival (%) (senescent cells; 30 μM): 30.2%; Survival (%) (senescent cells; […]): 89.8%
O=C(O)c1cc(/N=N/c2ccc(S(=O)(=O)Nc3ccccn3)cc2)ccc1O [LX-1302, Sulfasalazine] | 98.5 | 147 | 52 (±4.4) % | 48 (±3.2) % | 75 | 2.3 | 2.5 | 62 | 48 | 47 | 55 | 201 | 2.4 | 1.8 | 0.70 | 0.92 | 73 | 41 (±1.5) % | 59 (±2.6) % | – | –
Evolocumab (antibody, chains of the INN, looked up, V domains shown, CAS 1256937-27-5) VH: EVQLVQSGAEVKKPGASVKVSCKASGYTLTSYGISWVRQAPGQGLEWMGWVSFYNGNTNYAQKLQGRGTMTTDPSTSTAYMELRSLRSDDTAVYYCARGYGMDVWGQGTTVTVSS VL: ESALTQPASVSGSPGQSITISCTGTSSDVGGYNSVSWYQQHPGKAPKLMIYEVSNRPSGVSNRFSGSKSGNTASLTISGLQAEDEADYYCNSYTSTSMVFGGGTKLTVL | – | – | – | – | – | – | – | – | – | – | – | – | – | – | – | – | – | – | – | 291 | Survival (%) (senescent A549 cells [5]; 1.1 μM): 97.5%; Survival (%) (senescent A549 cells [5]; 10 μM): 43.2%; Survival (%) (senescent A549 cells [5]; 30 μM): 5.3%; Survival (%) (senescent cells; 1.1 μM): 93.9%; Survival (%) (senescent cells; 10 μM): 58.2%; Survival (%) (senescent cells; 30 μM): 18.5%; Survival (%) (senescent cells; […]): 87.6%
